Test results as given in ChEMBL document CHEMBL4024782, “Structure-Guided Synthesis and Mechanistic Studies Reveal Sweetspots on Naphthyl Salicyl Hydrazone Scaffold as Non-Nucleosidic Competitive, Reversible Inhibitors of Human Ribonucleotide Reductase” (J Med Chem, 2018).
One block for each molecule: values may come before it. Activity calls are given as the source filed them. No cut-off for these calls is given here.

Legend:
[1] = biological target: T1, Ribonucleoside-diphosphate reductase large subunit (Homo sapiens, UniProt P23921); assay: Inhibition of human RRM1 expressed in Escherichia coli BL21-codon plus(DE3)-RIL using [14C]-ADP as substrate after 3 mins by liquid scintillation counting method
T1 sequence (P23921 whole entry): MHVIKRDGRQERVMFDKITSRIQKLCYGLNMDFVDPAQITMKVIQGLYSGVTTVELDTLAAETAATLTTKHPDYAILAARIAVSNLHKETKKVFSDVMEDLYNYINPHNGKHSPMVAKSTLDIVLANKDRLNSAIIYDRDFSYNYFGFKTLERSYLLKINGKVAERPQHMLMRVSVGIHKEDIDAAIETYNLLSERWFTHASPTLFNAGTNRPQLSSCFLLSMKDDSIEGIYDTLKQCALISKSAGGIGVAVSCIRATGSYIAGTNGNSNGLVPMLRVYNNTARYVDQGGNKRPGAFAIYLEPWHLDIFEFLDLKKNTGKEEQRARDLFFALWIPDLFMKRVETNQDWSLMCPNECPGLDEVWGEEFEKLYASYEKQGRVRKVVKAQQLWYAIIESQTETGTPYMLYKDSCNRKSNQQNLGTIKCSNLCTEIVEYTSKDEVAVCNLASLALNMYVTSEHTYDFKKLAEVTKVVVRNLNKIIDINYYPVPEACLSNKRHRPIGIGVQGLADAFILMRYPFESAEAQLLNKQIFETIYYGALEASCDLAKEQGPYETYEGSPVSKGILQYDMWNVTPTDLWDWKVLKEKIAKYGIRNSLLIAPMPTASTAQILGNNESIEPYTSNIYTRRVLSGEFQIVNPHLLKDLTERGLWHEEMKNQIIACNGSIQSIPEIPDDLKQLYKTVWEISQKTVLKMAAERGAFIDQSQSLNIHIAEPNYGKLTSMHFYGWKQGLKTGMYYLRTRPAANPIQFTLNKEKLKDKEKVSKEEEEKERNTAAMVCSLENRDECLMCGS

[2] = Metal chelating activity in pH 7 ammonium acetate buffer assessed as Fe2+-compound complex formation at compound to metal ratio of 1:4 to 1:50 under anaerobic condition by UV spectroscopic method; format: functional
[3] = Metal chelating activity in pH 7 ammonium acetate buffer assessed as Fe3+-compound complex formation at compound to metal ratio of 1:1 to 1:50 under anaerobic condition by UV spectroscopic method; format: functional
[4] = Metal chelating activity in pH 7 ammonium acetate buffer assessed as Mg2+-compound complex formation at compound to metal ratio of 1:1 to 1:10 under anaerobic condition by UV spectroscopic method; format: functional
[5] = biological target: T2, Ribonucleoside-diphosphate reductase subunit M2 (Homo sapiens, UniProt P31350); assay: Inhibition of human RRM2 expressed in Escherichia coli BL21-codon plus(DE3) using [14C]-ADP as substrate after 3 mins by liquid scintillation counting method
T2 sequence (P31350 whole entry): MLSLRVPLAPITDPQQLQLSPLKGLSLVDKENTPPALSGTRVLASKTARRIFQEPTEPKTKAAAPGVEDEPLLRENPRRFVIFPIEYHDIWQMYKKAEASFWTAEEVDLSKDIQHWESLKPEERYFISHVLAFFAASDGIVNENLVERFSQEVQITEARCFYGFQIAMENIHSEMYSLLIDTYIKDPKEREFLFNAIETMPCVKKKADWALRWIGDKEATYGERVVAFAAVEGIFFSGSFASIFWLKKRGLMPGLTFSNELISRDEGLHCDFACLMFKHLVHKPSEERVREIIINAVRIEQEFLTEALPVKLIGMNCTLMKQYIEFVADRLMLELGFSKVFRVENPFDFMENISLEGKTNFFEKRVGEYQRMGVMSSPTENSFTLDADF

MDA-MB-231 [6] = assay: cells; settings: Homo sapiens, MDA-MB-231, 120 h
MDA-MB-231 [7] = assay: cells; settings: Homo sapiens, MDA-MB-231, 120 h; remark: listed apart in the source
MDA-MB-231 [8] = assay: cells; settings: Homo sapiens, MDA-MB-231, 120 h; remark: listed apart in the source
MDA-MB-231 [9] = assay: cells; settings: Homo sapiens, MDA-MB-231, 120 h; remark: listed apart in the source
MDA-MB-231 [10] = assay: cells; settings: Homo sapiens, MDA-MB-231, 72 h

IC50 [1]: 131 µM
SMILES: O=S(=O)(Cc1ccccc1)N/N=C/c1c(O)ccc2ccccc12

IC50 [1]: 687 µM
SMILES: COc1cc(/C=N/N=C/c2c(O)ccc3ccccc23)ccc1O

IC50 [5]: 123 µM | IC50 (MDA-MB-231 [6]): 0.347 µM | IC50 (MDA-MB-231 [7]): 1.43 µM | IC50 (MDA-MB-231 [8]): 1.94 µM | IC50 (MDA-MB-231 [9]): 1.49 µM
SMILES: O=C(N/N=C/c1c(O)ccc2ccccc12)c1ccccc1O
Activity [2]: Active | Activity [3]: inactive | Activity [4]: inactive

IC50 [5]: 0.185 µM
SMILES: NC(=S)N/N=C/c1ncccc1N [TRIAPINE]

IC50 [1]: 120 µM
SMILES: O=C(N/N=C/c1c(O)ccc2ccccc12)OCc1ccccc1

IC50 (MDA-MB-231 [10]): 0.03 to 0.1 µM
SMILES: Nc1ccn([C@@H]2O[C@H](CO)[C@@H](O)C2(F)F)c(=O)n1 [GEMCITABINE]
